Laboratory results taken from US20240228465A1, “SUBSTITUTED PYRIDINE N-OXIDE DERIVATIVES USEFUL AS A FACTOR XIA INHIBITORS” (Janssen Pharmaceutica NV, priority 2021, published 2024).
Where two headings read alike, the source gives them in different places.

How the values were obtained:
human plasma kallikrein = human plasma kallikrein (Homo sapiens, UniProt P03952); experiment: Kallikrein inhibition assay utilizing a quenched AMC peptide substrate (FLINT); assay type: biochemical
Protocol: Biological Example 2: Kallikrein Inhibition Assay Utilizing a Quenched AMC Peptide Substrate
A fluorescence intensity (FLINT) based assay was used to monitor inhibition of human plasma kallikrein. The peptide substrate, Z-Gly-Pro-Arg-AMC (Purchased from Bachem; Catalog #I-1150) was chosen based on its relatively low KM for kallikrein which enables running the assay at lower substrate concentrations to control background fluorescence. The kinetic parameters for this substrate were determined by fitting titration data to the Michaelis-Menten equation yielding a KM=40 μm, kcat=0.76 s^−1, and kcat/KM=18932 M^−1s^−1.
The Kallikrein FLINT assay was used with the following Z-Gly-Pro-Arg-AMC assay buffer: 50 mM Tris, pH 7.5, 100 mM NaCl, 5 mM CaCl2, 0.1 mg/mL BSA, 0.03% CHAPS. Assay buffer was prepared by mixing all ingredients fresh. 2× Z-Gly-Pro-Arg-AMC peptide substrate was prepared by diluting 10 mM stock into 1× assay buffer for a 100 μM working concentration (50 μM final concentration). The 2× kallikrein stock solution was prepared by diluting 14.76 μM stock in 1× assay buffer for a 4 nM working stock solution (2 nM final concentration).
Test compound(s) were run in an 11-point, 3-fold serial dilution with a final top compound concentration of 1 μM. Final DMSO in assay was 2%. Plasma kallikrein was pre-incubated for 30-minute with compound and then 50 μM substrate was added to initiate the reaction. The assay was run with either end point (EP) reads at 30 min or kinetic (KIN) reads at 5 min intervals over 30 minutes. The time course was linear using 2 nM kallikrein greater than 30 minutes. More specifically, the assay was run as follows: • 100 nL of 0.1 mM test compound was dispensed into black 384-well non-binding Greiner BioOne 784900 plate for 1 μM final concentration; • 5 μL of 1× assay buffer was dispensed to columns 24 (low control) and 5 μL 2× human kallikrein enzyme solution was dispensed to columns 1-23 (column 23 high control); • the plate was centrifuged with a “cover” plate at 500 rpm for 1 min • the plate was pre-incubated for 30 minutes at room temperature with plate covered; • 5 μL of 2× Z-Gly-Pro-Arg-AMC peptide substrate was dispensed into the entire plate, columns 1-24; • the plate was centrifuged with a “cover” plate at 500 rpm for 1 min; • the plate was read monitoring fluorescence intensity on the BMG PHERAStar at room temperature, using fluorescence module 340 nm/440 nm.
(§1) Percent inhibition (IC50) curves were generated per compound tested, and data was analyzed using a 4-parameter logistic fit using GeneData Screener. The relative fluorescence unit (RFU) values were normalized to percent inhibition using the following equation:
% inhibition=((HC−LC)−(compound−LC)/(HC−LC))*100 • where LC—low control=mean signal of human kallikrein enzyme or 100% inhibition of human kallikrein enzyme; HC—high control=mean signal of Factor XIa+Z-Gly-Pro-Arg-AMC peptide substrate with DMSO only.
(§2) An 11-point dose response curve for the test compound(s) was generated using GENDATA to determine IC50 value based on the following equation:
Y=Bottom+(Top−Bottom)/(1+10^((log IC50−X)*HillSlope)) • where Y is the % inhibition in the presence of X inhibitor concentration, Top=high control=mean signal of human kallikrein enzyme+Z-Gly-Pro-Arg-AMC peptide substrate with DMSO only; Bottom=low control—mean signal of no human kallikrein enzyme or 100% inhibition of human kallikrein enzyme; HillSlope—Hill coefficient; and IC50=concentration of compound with 50% inhibition in relation to top/high control.
Representative compounds of formula (I) of the present invention were tested according to the procedure described in Biological Example 1 and Biological Example 2 above, with results as listed in Table 3, below. Results listed in the (ER) column were measured using endpoint reads where a single fluorescence reading was measured for each well at a 30 min timepoint. […]

Factor XIa = Factor XIa (Homo sapiens, UniProt P03951); experiment: Factor XIa inhibition assay utilizing a fluorophore-quencher pair peptide substrate (FLINT); assay type: biochemical; conditions: 30 min preincubation
Sequence of Factor XIa (P03951 388-625 limits assumed): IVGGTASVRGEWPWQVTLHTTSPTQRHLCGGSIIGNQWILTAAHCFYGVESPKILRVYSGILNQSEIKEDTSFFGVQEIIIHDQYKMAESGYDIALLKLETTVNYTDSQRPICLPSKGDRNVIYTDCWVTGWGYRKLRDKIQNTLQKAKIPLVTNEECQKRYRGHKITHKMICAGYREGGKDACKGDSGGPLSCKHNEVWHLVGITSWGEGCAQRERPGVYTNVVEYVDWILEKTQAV
Sequence of Factor XIa (P03951 19-387 partner limits assumed): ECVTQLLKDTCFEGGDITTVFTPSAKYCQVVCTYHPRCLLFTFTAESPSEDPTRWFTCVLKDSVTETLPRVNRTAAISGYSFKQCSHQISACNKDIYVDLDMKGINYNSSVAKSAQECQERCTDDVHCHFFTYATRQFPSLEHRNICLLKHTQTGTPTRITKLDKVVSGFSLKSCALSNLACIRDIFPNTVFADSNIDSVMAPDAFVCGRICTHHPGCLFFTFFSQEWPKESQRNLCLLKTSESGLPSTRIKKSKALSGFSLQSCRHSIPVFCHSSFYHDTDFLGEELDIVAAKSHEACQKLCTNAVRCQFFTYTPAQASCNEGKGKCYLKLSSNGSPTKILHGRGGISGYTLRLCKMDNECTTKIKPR
Source text: Biological Example 1: Factor XIa Inhibition Assay Utilizing a Fluorophore-Quencher Pair Peptide Substrate
A fluorescence intensity (FLINT) based assay was used to monitor inhibition of Factor XIa. The peptide substrate, 5Fam-KLTRAETV-K5Tamra (purchased from New England Peptide) was chosen based on the […]. Conversion of zymogen […]. The custom peptide used in this assay was based on the Arg146 cleavage site of FXI. The peptide substrate was designed with a fluorophore-quencher pair, where the fluorescence is quenched until FXIa cleaves the 8-mer peptide after the Arg residue. The substrate KM was fit to a substrate inhibition model whereby kcat=0.86 s^−1, KM=12.4 μM, Ki=61.6 μM with an enzymatic efficiency, and kcat/KM=69523 M^−1s^−1.
The Factor XIa FLINT assay was used with the following 5Fam-KLTRAETV-K5Tamra assay buffer: 50 mM Tris, pH 7.5, 100 mM NaCl, 5 mM CaCl2, 0.1 mg/mL BSA, 0.03% CHAPS. Assay buffer was prepared by mixing all ingredients fresh. 5Fam-KLTRAETV-K5Tamra peptide substrate was first prepared at 10 mM in 100% DMSO, then diluted to 3 mM in 100% DMSO. Assay buffer was then added directly to the 3 mM stock of substrate to prepare the 30 μM 2× working concentration (15 μM final concentration). The 2× Factor XIa stock solution was prepared by diluting 6.562 μM stock in 1× assay buffer for a […].
Test compound(s) were run in an 11-point, 3-fold serial dilution with a final top compound concentration of 100 nM. Final DMSO in assay was 2%. FXIa was preincubated with compound for 30-minutes and then substrate was added to initiate the reaction. The assay was run with either end point (EP) reads at 30 min or kinetic (KIN) reads at 5 min intervals over 30 minutes. The time course was linear using 100 μM FXIa greater than 30 minutes. More specifically, the assay was run as follows: • 100 nL of 0.01 mM test compound was dispensed into black 384-well non-binding Greiner BioOne 784900 plate for 0.1 μM final concentration; • 5 μL of 1× assay buffer was dispensed to column 24 (low control) and 5 μL 2× Factor XIa solution was dispensed to columns 1-23 (column 23 high control); • the plate was centrifuged with a “cover” plate at 500 rpm for 1 min • the plate was pre-incubated for 30 minutes at room temperature with plate covered; • 5 μL of 2× 5Fam-KLTRAETV-K5Tamra peptide substrate was dispensed into the entire plate, columns 1-24; • the plate was centrifuged with a “cover” plate at 500 rpm for 1 min; • the plate was read monitoring fluorescence intensity on the BMG PHERAStar at room temperature, using fluorescence module 485 nm/520 nm.
as §1
[formula] • where LC—low control=mean signal of no Factor XIa or 100% inhibition of Factor XIa; HC—high control=mean signal of Factor XIa+5Fam-KLTRAETV-K5Tamra peptide substrate with DMSO only.
as §2
[formula] • where Y is the % inhibition in the presence of X inhibitor concentration, Top=high control=mean signal of Factor XIa+5Fam-KLTRAETV-K5Tamra peptide substrate with DMSO only; Bottom=low control—mean signal of no Factor XIa or 100% inhibition of Factor XIa; HillSlope—Hill coefficient; and IC50=concentration of compound with 50% inhibition in relation to top/high control.
Representative compounds of formula (I) of the present invention were tested according to the procedure described in Biological Example 1 and Biological Example 2 above, with results as listed in Table 3, below. […]

[1] = kinetic reads, unit μM, read-out: Kallikrein (KIN) IC50
[2] = kinetic reads at 5 min intervals over 30 min, read-out: FXIa (KIN) IC50
[3] = kinetic reads at 5 min intervals over 30 min, 30 min preincubation, read-out: Kallikrein (KIN) IC50
[4] = end point read at 30 min, 30 min preincubation, read-out: Kallikrein (EP) IC50
[5] = end point read at 30 min, read-out: FXIa (EP) IC50

Sequence of human plasma kallikrein (P03952 391-638 limits assumed): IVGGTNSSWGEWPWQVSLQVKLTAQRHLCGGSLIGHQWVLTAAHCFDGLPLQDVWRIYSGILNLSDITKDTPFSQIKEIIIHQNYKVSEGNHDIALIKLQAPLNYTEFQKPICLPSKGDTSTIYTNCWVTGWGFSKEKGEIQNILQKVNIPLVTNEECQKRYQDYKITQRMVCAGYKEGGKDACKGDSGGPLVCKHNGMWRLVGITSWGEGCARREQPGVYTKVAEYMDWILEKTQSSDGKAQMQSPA
Sequence of human plasma kallikrein (P03952 20-390 partner limits assumed): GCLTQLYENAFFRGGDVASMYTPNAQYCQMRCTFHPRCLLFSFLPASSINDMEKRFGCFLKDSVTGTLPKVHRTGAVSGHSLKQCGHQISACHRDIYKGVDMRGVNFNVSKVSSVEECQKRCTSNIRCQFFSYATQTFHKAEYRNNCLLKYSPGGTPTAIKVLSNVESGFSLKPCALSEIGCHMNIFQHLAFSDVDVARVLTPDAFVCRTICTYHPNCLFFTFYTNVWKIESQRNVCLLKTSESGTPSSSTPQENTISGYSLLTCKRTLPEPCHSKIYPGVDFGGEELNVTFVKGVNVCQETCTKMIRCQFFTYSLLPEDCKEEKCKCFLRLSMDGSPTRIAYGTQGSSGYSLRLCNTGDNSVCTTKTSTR

Row | IC50 (human plasma kallikrein; [1]) | IC50 (Factor XIa; [2]) | IC50 (human plasma kallikrein; [3]) | IC50 (human plasma kallikrein; [4]) | IC50 (Factor XIa; [5]) | SMILES
1 |  | 3.4 nM | 0.312 µM |  |  | Cn1nncc1-c1cn([C@H](CC2CC2)c2ccc(-c3c(-n4cnnn4)ccc(Cl)c3F)c[n+]2[O-])nn1 [T6, (R)-5-(3-Chloro-2-fluoro-6-(1H-tetrazol-1-yl)phenyl)-2-(2-cyclopropyl-1-(3′-methyl-1H,3′H-[4,4′-bi(1,2,3-triazol)]-1-yl)ethyl)pyridine 1-oxide]
2 |  |  |  | 0.0835 µM | 1.6 nM | O=C(O)c1ccc(-c2cn(C(CC3CC3)c3ccc(-c4cc(Cl)ccc4-n4cnnn4)c[n+]3[O-])nn2)cc1 (stereo not shown) [T1, 2-(1-(4-(4-Carboxyphenyl)-1H-1,2,3-triazol-1-yl)-2-cyclopropylethyl)-5-(5-chloro-2-(1H-tetrazol-1-yl)phenyl)pyridine 1-oxide]
3 | > 1 µM | > 100 nM |  |  |  | [O-][n+]1cc(-c2c(-n3cc(C(F)(F)F)nn3)ccc(Cl)c2F)ccc1[C@H](CCOC(F)F)n1cc(-c2cnnn2C(F)F)nn1 [T9, (S)-5-(3-Chloro-2-fluoro-6-(4-(trifluoromethyl)-1H-1,2,3-triazol-1-yl)phenyl)-2-(3-(difluoromethoxy)-1-(3′-(difluoromethyl)-1H,3′H-[4,4′-bi(1,2,3-triazol)]-1-yl)propyl)pyridine 1-oxide]
4 |  | 31.8 nM | 0.269 µM |  |  | COC(=O)Nc1ccc(-c2cn(C(CC3CC3)c3ccc(-c4c(-n5cnnn5)ccc(Cl)c4F)c[n+]3[O-])nn2)cc1 (single isomer, unassigned) [T3, (R*)-5-(3-Chloro-2-fluoro-6-(1H-tetrazol-1-yl)phenyl)-2-(2-cyclopropyl-1-(4-(4-((methoxycarbonyl)amino)phenyl)-1H-1,2,3-triazol-1-yl)ethyl)pyridine 1-oxide]

Continued, molecule first:

Row | SMILES | IC50 (human plasma kallikrein; [1]) | IC50 (Factor XIa; [2]) | IC50 (human plasma kallikrein; [3]) | IC50 (human plasma kallikrein; [4]) | IC50 (Factor XIa; [5])
5 | [2H]C([2H])([2H])n1nccc1-c1cn(C(CCOC(F)F)c2ccc(-c3c(-n4cc(C(F)(F)F)nn4)ccc(Cl)c3F)c[n+]2[O-])cn1 (single isomer, unassigned) [M15, (R*)-5-(3-Chloro-2-fluoro-6-(4-(trifluoromethyl)-1H-1,2,3-triazol-1-yl)phenyl)-2-(3-(difluoromethoxy)-1-(4-(1-(methyl-d3)-1H-pyrazol-5-yl)-1H-imidazol-1-yl)propyl)pyridine 1-oxide] | > 1 µM | > 100 nM |  |  | 
6 | O=C(O)c1ccc(-c2cn(C(CC3CC3)c3ccc(-c4cc(Cl)ccc4-n4cnnn4)c[n+]3[O-])cn2)cc1 (stereo not shown) [M1, 2-(1-(4-(4-Carboxyphenyl)-1H-imidazol-1-yl)-2-cyclopropylethyl)-5-(5-chloro-2-(1H-tetrazol-1-yl)phenyl)pyridine 1-oxide] |  |  |  | 0.306 µM | 7.1 nM
7 | Cn1ncnc1-c1cn(C(CCOC(F)F)c2ccc(-c3c(-n4cc(C(F)(F)F)nn4)ccc(Cl)c3F)c[n+]2[O-])cn1 (stereo not shown) [M9, 5-(3-Chloro-2-fluoro-6-(4-(trifluoromethyl)-1H-1,2,3-triazol-1-yl)phenyl)-2-(3-(difluoromethoxy)-1-(4-(1-methyl-1H-1,2,4-triazol-5-yl)-1H-imidazol-1-yl)propyl)pyridine 1-oxide] |  | 4.3 nM | 0.543 µM |  | 
8 | [O-][n+]1cc(-c2c(-n3cnnn3)ccc(Cl)c2F)ccc1C(Cc1ccc(F)cc1)n1cnc(-c2ccncc2)c1 (stereo not shown) [M5, 5-(3-Chloro-2-fluoro-6-(1H-tetrazol-1-yl)phenyl)-2-(2-(4-fluorophenyl)-1-(4-(pyridin-4-yl)-1H-imidazol-1-yl)ethyl)pyridine 1-oxide] |  | 0.7 nM | 0.0017 µM |  | 
9 | Cn1nncc1-c1cn([C@H](CCOC(F)F)c2ccc(-c3c(-n4cc(Cl)nn4)ccc(Cl)c3F)c[n+]2[O-])cn1 [M12, (R)-5-(3-Chloro-6-(4-chloro-1H-1,2,3-triazol-1-yl)-2-fluorophenyl)-2-(3-(difluoromethoxy)-1-(4-(1-methyl-1H-1,2,3-triazol-5-yl)-1H-imidazol-1-yl)propyl)pyridine 1-oxide] |  | 0.3 nM | 0.0159 µM |  | 
10 | [2H]C([2H])([2H])n1nccc1-c1cn(C(CCOC(F)F)c2ccc(-c3c(-n4cc(C(F)(F)F)nn4)ccc(Cl)c3F)c[n+]2[O-])cn1 (single isomer, unassigned) [M16, (S*)-5-(3-Chloro-2-fluoro-6-(4-(trifluoromethyl)-1H-1,2,3-triazol-1-yl)phenyl)-2-(3-(difluoromethoxy)-1-(4-(1-(methyl-d3)-1H-pyrazol-5-yl)-1H-imidazol-1-yl)propyl)pyridine 1-oxide] |  | 0.5 nM | 0.0317 µM |  | 
11 | O=C(N[C@H]1C[C@H](O)C1)c1ccc(-c2cn(C(CC3CC3)c3ccc(-c4cc(Cl)ccc4-n4cnnn4)c[n+]3[O-])cn2)cc1 (mixture of isomers) [M2, 5-(5-Chloro-2-(1H-tetrazol-1-yl)phenyl)-2-(2-cyclopropyl-1-(4-(4-(((1R,3R)-3-hydroxycyclobutyl)carbamoyl)phenyl)-1H-imidazol-1-yl)ethyl)pyridine 1-oxide] |  |  |  | 1.36 µM | 100 nM
